Reference: patent publication US8247211B2, “Glycopeptide antibiotics” (American Cyanamid Company, priority 2001, dated 2012)
In brackets after ≈: the same amount, converted by molar mass. Values belong to the compound of their own block, whether it stands above or below them.

Legend:
Assay in all cases: In vitro antibacterial evaluation: minimum inhibitory concentration (MIC), broth dilution method
Format in all cases: cell-based
Enterococcus sp. = settings: broth dilution, 18 hours at 35° C.
How it was run: (§1)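 Test strains, among them recent clinical isolates carrying methicillin, penicillin and/or vancomycin resistance, were inoculated at 5×10^5 CFU/mL. A broth dilution series spanning 64-0.06 μg/mL in Muller-Hinton II […] (NCCLS M7-A2) defined the MIC as the lowest growth-inhibiting concentration.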

Staphylococcus sp. = settings: broth dilution, 18 hours at 35° C.; for MIC Staphylococcus aureus-SMITH (GC 4543): strain SMITH GC 4543
How it was run: as §1

Streptococcus sp. = settings: broth dilution, 18 hours at 35° C.
How it was run: as §1

Escherichia coli = settings: broth dilution, 18 hours at 35° C.
[1] = Enterococcus faecalis (ATCC 29212)
[2] = Enterococcus faecalis (GC 2242)
[3] = Enterococcus faecalis (GC 2691)
[4] = Enterococcus faecalis (GC 3059)
[5] = Enterococcus faecalis (GC 4552)
[6] = Enterococcus faecalis (GC 4553)
[7] = Enterococcus faecalis (GC 4554)
[8] = Enterococcus faecalis (GC 6189)
[9] = Streptococcus agalactiae (GC 4564)
[10] = Streptococcus pneumoniae (ATCC 6301)
[11] = Streptococcus pneumoniae (GC 1894)
[12] = Streptococcus pneumoniae (GC 4565)
[13] = Streptococcus pyogenes (GC 4563)

Structure (SMILES): CC(c1ccccc1)C1NC(=O)CNC(=O)C(CO)NC(=O)C(C(O)C2CNC(=N)N2C2OC(CO)C(O)C(O)C2O)NC(=O)C(C(O)C2CNC(=N)N2)NC(=O)C(Cc2ccc3oc(SCc4ccc5ccccc5c4)nc3c2)NC1=O (stereo not drawn) [Example 46, Cyclo[3-[2-[(naphthylmethyl)thio]-1,3-benzoxazol-5-yl]alanyl-3-(2-iminoimidazolidin-4-yl)-seryl-3-(3-hexopyranosyl-2-iminoimidazolidin-4-yl)serylserylglycyl-β-methylphenylalanyl]]
MIC Enterococcus avium (GC 4558) (Enterococcus sp.; Enterococcus avium (GC 4558)): 4 µg/mL (≈ 3.42 µM) | MIC Enterococcus faecalis (ATCC 29212) (Enterococcus sp.; [1]): 8 µg/mL (≈ 6.85 µM) | MIC Enterococcus faecalis (GC 2242) (Enterococcus sp.; [2]): 8 µg/mL (≈ 6.85 µM) | MIC Enterococcus faecalis (GC 2691) (Enterococcus sp.; [3]): 16 µg/mL (≈ 13.7 µM) | MIC Enterococcus faecalis (GC 3059) (Enterococcus sp.; [4]): 32 µg/mL (≈ 27.4 µM) | MIC Enterococcus faecalis (GC 4552) (Enterococcus sp.; [5]): 8 µg/mL (≈ 6.85 µM) | MIC Enterococcus faecalis (GC 4553) (Enterococcus sp.; [6]): 4 µg/mL (≈ 3.42 µM) | MIC Enterococcus faecalis (GC 4554) (Enterococcus sp.; [7]): 16 µg/mL (≈ 13.7 µM) | MIC Enterococcus faecalis (GC 6189) (Enterococcus sp.; [8]): 16 µg/mL (≈ 13.7 µM) | MIC Enterococcus faecium (GC 2243) (Enterococcus sp.; Enterococcus faecium (GC 2243)): 4 µg/mL (≈ 3.42 µM) | MIC Enterococcus faecium (GC 4556) (Enterococcus sp.; Enterococcus faecium (GC 4556)): 16 µg/mL (≈ 13.7 µM) | MIC Enterococcus faecium (GC 4557) (Enterococcus sp.; Enterococcus faecium (GC 4557)): 8 µg/mL (≈ 6.85 µM) | MIC Enterococcus avium (GC 4558) (Enterococcus sp.): 4 µg/mL (≈ 3.42 µM) | MIC Enterococcus faecalis (ATCC 29212) (Enterococcus sp.): 8 µg/mL (≈ 6.85 µM) | MIC Enterococcus faecalis (GC 2242) (Enterococcus sp.): 8 µg/mL (≈ 6.85 µM) | MIC Enterococcus faecalis (GC 2691) (Enterococcus sp.): 16 µg/mL (≈ 13.7 µM) | MIC Enterococcus faecalis (GC 3059) (Enterococcus sp.): 32 µg/mL (≈ 27.4 µM) | MIC Enterococcus faecalis (GC 4552) (Enterococcus sp.): 8 µg/mL (≈ 6.85 µM) | MIC Enterococcus faecalis (GC 4553) (Enterococcus sp.): 4 µg/mL (≈ 3.42 µM) | MIC Enterococcus faecalis (GC 4554) (Enterococcus sp.): 16 µg/mL (≈ 13.7 µM) | MIC Enterococcus faecalis (GC 6189) (Enterococcus sp.): 16 µg/mL (≈ 13.7 µM) | MIC Enterococcus faecium (GC 2243) (Enterococcus sp.): 4 µg/mL (≈ 3.42 µM) | MIC Enterococcus faecium (GC 4556) (Enterococcus sp.): 16 µg/mL (≈ 13.7 µM) | MIC Enterococcus faecium (GC 4557) (Enterococcus sp.): 8 µg/mL (≈ 6.85 µM) | MIC Coagulase Negative Staphylococcus (GC 4547) (Staphylococcus sp.): 4 µg/mL (≈ 3.42 µM) | MIC Coagulase Negative Staphylococcus (GC 4548) (Staphylococcus sp.): 8 µg/mL (≈ 6.85 µM) | MIC Coagulase Negative Staphylococcus (GC 4549) (Staphylococcus sp.): 2 µg/mL (≈ 1.71 µM) | MIC Coagulase Negative Staphylococcus (GC 4551) (Staphylococcus sp.): 4 µg/mL (≈ 3.42 µM) | MIC Staphylococcus aureus SMITH (GC 4543) (Staphylococcus sp.): 4 µg/mL (≈ 3.42 µM) | MIC Staphylococcus haemolyticus (GC 4546) (Staphylococcus sp.): 8 µg/mL (≈ 6.85 µM) | MIC Staphylococcus aureus-SMITH (GC 4543) (Staphylococcus sp.): 4 µg/mL (≈ 3.42 µM) | MIC Streptococcus agalactiae (GC 4564) (Streptococcus sp.; [9]): 8 µg/mL (≈ 6.85 µM) | MIC Streptococcus pneumoniae (ATCC 6301) (Streptococcus sp.; [10]): 8 µg/mL (≈ 6.85 µM) | MIC Streptococcus pneumoniae (GC 1894) (Streptococcus sp.; [11]): 8 µg/mL (≈ 6.85 µM) | MIC Streptococcus pneumoniae (GC 4565) (Streptococcus sp.; [12]): 8 µg/mL (≈ 6.85 µM) | MIC Streptococcus pyogenes (GC 4563) (Streptococcus sp.; [13]): 1 µg/mL (≈ 0.856 µM) | MIC Streptococcus agalactiae (GC 4564) (Streptococcus sp.): 8 µg/mL (≈ 6.85 µM) | MIC Streptococcus pneumoniae (ATCC 6301) (Streptococcus sp.): 8 µg/mL (≈ 6.85 µM) | MIC Streptococcus pneumoniae (GC 1894) (Streptococcus sp.): 8 µg/mL (≈ 6.85 µM) | MIC Streptococcus pneumoniae (GC 4565) (Streptococcus sp.): 8 µg/mL (≈ 6.85 µM) | MIC Streptococcus pyogenes (GC 4563) (Streptococcus sp.): 1 µg/mL (≈ 0.856 µM) | MIC Escherichia coli (ATCC 25922) (Escherichia coli): 64 µg/mL (≈ 54.8 µM) | MIC Escherichia coli (GC 4559) (Escherichia coli): 64 µg/mL (≈ 54.8 µM) | MIC Escherichia coli (GC 4560) (Escherichia coli): 16 µg/mL (≈ 13.7 µM)

MIC Enterococcus avium (GC 4558) (Enterococcus sp.; Enterococcus avium (GC 4558)): 2 µg/mL (≈ 1.67 µM) | MIC Enterococcus faecalis (ATCC 29212) (Enterococcus sp.; [1]): 8 µg/mL (≈ 6.7 µM) | MIC Enterococcus faecalis (GC 2242) (Enterococcus sp.; [2]): 4 µg/mL (≈ 3.35 µM) | MIC Enterococcus faecalis (GC 2691) (Enterococcus sp.; [3]): 32 µg/mL (≈ 26.8 µM) | MIC Enterococcus faecalis (GC 3059) (Enterococcus sp.; [4]): 32 µg/mL (≈ 26.8 µM) | MIC Enterococcus faecalis (GC 4552) (Enterococcus sp.; [5]): 16 µg/mL (≈ 13.4 µM) | MIC Enterococcus faecalis (GC 4553) (Enterococcus sp.; [6]): 4 µg/mL (≈ 3.35 µM) | MIC Enterococcus faecalis (GC 4554) (Enterococcus sp.; [7]): 64 µg/mL (≈ 53.6 µM) | MIC Enterococcus faecalis (GC 6189) (Enterococcus sp.; [8]): 32 µg/mL (≈ 26.8 µM) | MIC Enterococcus faecium (GC 2243) (Enterococcus sp.; Enterococcus faecium (GC 2243)): 4 µg/mL (≈ 3.35 µM) | MIC Enterococcus faecium (GC 4556) (Enterococcus sp.; Enterococcus faecium (GC 4556)): 8 µg/mL (≈ 6.7 µM) | MIC Enterococcus faecium (GC 4557) (Enterococcus sp.; Enterococcus faecium (GC 4557)): 4 µg/mL (≈ 3.35 µM) | MIC Enterococcus avium (GC 4558) (Enterococcus sp.): 2 µg/mL (≈ 1.67 µM) | MIC Enterococcus faecalis (ATCC 29212) (Enterococcus sp.): 8 µg/mL (≈ 6.7 µM) | MIC Enterococcus faecalis (GC 2242) (Enterococcus sp.): 4 µg/mL (≈ 3.35 µM) | MIC Enterococcus faecalis (GC 2691) (Enterococcus sp.): 32 µg/mL (≈ 26.8 µM) | MIC Enterococcus faecalis (GC 3059) (Enterococcus sp.): 32 µg/mL (≈ 26.8 µM) | MIC Enterococcus faecalis (GC 4552) (Enterococcus sp.): 16 µg/mL (≈ 13.4 µM) | MIC Enterococcus faecalis (GC 4553) (Enterococcus sp.): 4 µg/mL (≈ 3.35 µM) | MIC Enterococcus faecalis (GC 4554) (Enterococcus sp.): 64 µg/mL (≈ 53.6 µM) | MIC Enterococcus faecalis (GC 6189) (Enterococcus sp.): 32 µg/mL (≈ 26.8 µM) | MIC Enterococcus faecium (GC 2243) (Enterococcus sp.): 4 µg/mL (≈ 3.35 µM) | MIC Enterococcus faecium (GC 4556) (Enterococcus sp.): 8 µg/mL (≈ 6.7 µM) | MIC Enterococcus faecium (GC 4557) (Enterococcus sp.): 4 µg/mL (≈ 3.35 µM) | MIC Coagulase Negative Staphylococcus (GC 4547) (Staphylococcus sp.): 16 µg/mL (≈ 13.4 µM) | MIC Coagulase Negative Staphylococcus (GC 4548) (Staphylococcus sp.): 2 µg/mL (≈ 1.67 µM) | MIC Coagulase Negative Staphylococcus (GC 4549) (Staphylococcus sp.): 0.5 µg/mL (≈ 0.419 µM) | MIC Coagulase Negative Staphylococcus (GC 4551) (Staphylococcus sp.): 8 µg/mL (≈ 6.7 µM) | MIC Staphylococcus aureus SMITH (GC 4543) (Staphylococcus sp.): 8 µg/mL (≈ 6.7 µM) | MIC Staphylococcus aureus-SMITH (GC 4543) (Staphylococcus sp.): 8 µg/mL (≈ 6.7 µM) | MIC Streptococcus agalactiae (GC 4564) (Streptococcus sp.; [9]): 2 µg/mL (≈ 1.67 µM) | MIC Streptococcus pneumoniae (ATCC 6301) (Streptococcus sp.; [10]): 4 µg/mL (≈ 3.35 µM) | MIC Streptococcus pneumoniae (GC 1894) (Streptococcus sp.; [11]): 2 µg/mL (≈ 1.67 µM) | MIC Streptococcus pneumoniae (GC 4565) (Streptococcus sp.; [12]): 8 µg/mL (≈ 6.7 µM) | MIC Streptococcus pyogenes (GC 4563) (Streptococcus sp.; [13]): 1 µg/mL (≈ 0.837 µM) | MIC Streptococcus agalactiae (GC 4564) (Streptococcus sp.): 2 µg/mL (≈ 1.67 µM) | MIC Streptococcus pneumoniae (ATCC 6301) (Streptococcus sp.): 4 µg/mL (≈ 3.35 µM) | MIC Streptococcus pneumoniae (GC 1894) (Streptococcus sp.): 2 µg/mL (≈ 1.67 µM) | MIC Streptococcus pneumoniae (GC 4565) (Streptococcus sp.): 8 µg/mL (≈ 6.7 µM) | MIC Streptococcus pyogenes (GC 4563) (Streptococcus sp.): 1 µg/mL (≈ 0.837 µM) | MIC Escherichia coli (ATCC 25922) (Escherichia coli): >64 µg/mL | MIC Escherichia coli (GC 4559) (Escherichia coli): >64 µg/mL | MIC Escherichia coli (GC 4560) (Escherichia coli): 32 µg/mL (≈ 26.8 µM)
Structure (SMILES): CC(c1ccccc1)C1NC(=O)CNC(=O)C(CO)NC(=O)C(C(O)C2CNC(=N)N2C2OC(CO)C(O)C(O)C2O)NC(=O)C(C(O)C2CNC(=N)N2)NC(=O)C(Cc2ccc3oc(SCc4ccc(-c5ccccc5)cc4)nc3c2)NC1=O (stereo not shown) [Example 47]
MIC Staphylococcus haemolyticus (GC 4546) (Staphylococcus sp.): 8 µg/mL (≈ 6.7 µM)
